Read-outs that look alike come from different tables or passages of the source.
What was measured:
[1] = target: T1, BRD4 bromodomain domain I [BRD4(1)] (Homo sapiens, UniProt O60885); assay: BRD4 bromodomain domain 1 inhibition assay (TR-FRET); type: binding; conditions: screening concentration 10 μM
T1 construct: BRD4 bromodomain domain I [BRD4(1)]; purchased Cayman Chemicals
How it was run: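 0.5% DMSO, in triplicate, using Cayman BRD4(1) TR-FRET protocol with slight modification. 670/620 nm ratio normalized to 10 μM JQ1, with DMSO control set as 0% inhibition.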

human PBMCs = assay: Human PBMC TNF-α response to endotoxin (ELISA); type: cell-based; conditions: 0.1 μg/ml LPS 16 h, read-out: EC50 for the inhibition of the human PBMC TNF-α response to endotoxin, ave. ± S.D.
How it was run: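 PBMCs at 2e6 cells/ml in RPMI 1640 with 10% charcoal-dextran-treated FBS were pre-treated 1 h at 37 °C with compound (4-point 1:5 dilution from 10 μM). Stimulation with 0.1 μg/ml E. coli 0111:B4 LPS for 16 h; TNF-α measured by ELISA (A450) in 25-fold diluted supernatant.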

ABL or ARG = assay: Probe-based (AX9989) kinase profiling in Jurkat lysate: ABL or ARG; type: binding
How it was run: (§1)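 Jurkat lysate, HEPES pH 7.5 buffer + 20 mM MnCl2; cpd 15 min RT; AX9989 ATP probe 5 μM final, RT. Trypsin digest, streptavidin capture, LC/MS; % inhibition vs vehicle from labeled-peptide signal.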

ACK = target: T2, ACK (Homo sapiens, UniProt Q07912); assay: Probe-based (AX9989) kinase profiling in Jurkat lysate: ACK; type: binding
T2 construct: screened for activity against several kinases in Jurkat cells; endogenous in cells; host or cells: Jurkat cell lysate
T2 sequence (Q07912 whole entry): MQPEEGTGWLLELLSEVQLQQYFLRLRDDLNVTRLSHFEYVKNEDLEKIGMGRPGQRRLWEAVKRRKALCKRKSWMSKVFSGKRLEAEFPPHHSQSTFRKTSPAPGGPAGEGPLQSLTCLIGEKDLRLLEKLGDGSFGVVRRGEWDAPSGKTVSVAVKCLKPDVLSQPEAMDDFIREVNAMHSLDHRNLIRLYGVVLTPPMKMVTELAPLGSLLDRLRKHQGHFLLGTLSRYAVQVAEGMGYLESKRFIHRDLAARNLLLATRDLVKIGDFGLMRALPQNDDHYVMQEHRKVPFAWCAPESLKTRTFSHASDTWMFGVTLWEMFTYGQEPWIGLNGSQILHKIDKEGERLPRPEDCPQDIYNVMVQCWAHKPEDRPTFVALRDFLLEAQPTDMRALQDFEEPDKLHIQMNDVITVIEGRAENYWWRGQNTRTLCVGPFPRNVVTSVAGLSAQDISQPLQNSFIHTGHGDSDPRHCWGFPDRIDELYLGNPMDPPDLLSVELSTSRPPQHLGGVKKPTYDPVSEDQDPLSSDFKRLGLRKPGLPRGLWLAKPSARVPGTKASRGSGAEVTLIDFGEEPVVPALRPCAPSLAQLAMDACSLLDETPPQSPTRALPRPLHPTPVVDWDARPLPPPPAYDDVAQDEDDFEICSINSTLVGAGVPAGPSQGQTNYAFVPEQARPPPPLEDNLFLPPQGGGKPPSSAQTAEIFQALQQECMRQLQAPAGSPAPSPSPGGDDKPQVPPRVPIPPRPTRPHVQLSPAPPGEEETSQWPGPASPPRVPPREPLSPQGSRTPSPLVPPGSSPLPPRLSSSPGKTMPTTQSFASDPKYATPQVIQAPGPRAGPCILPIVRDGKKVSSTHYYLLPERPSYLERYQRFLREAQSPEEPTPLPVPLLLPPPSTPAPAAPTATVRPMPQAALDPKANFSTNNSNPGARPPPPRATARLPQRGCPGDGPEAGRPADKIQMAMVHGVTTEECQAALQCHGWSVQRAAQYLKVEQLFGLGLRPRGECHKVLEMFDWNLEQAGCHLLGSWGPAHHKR
How it was run: as §1

JAK1 = target: T3, JAK1 (Homo sapiens, UniProt P23458); assay: Probe-based (AX9989) kinase profiling in Jurkat lysate: JAK1; type: binding
T3 construct: screened for activity against several kinases in Jurkat cells; endogenous in cells; host or cells: Jurkat cell lysate
T3 sequence (P23458 whole entry): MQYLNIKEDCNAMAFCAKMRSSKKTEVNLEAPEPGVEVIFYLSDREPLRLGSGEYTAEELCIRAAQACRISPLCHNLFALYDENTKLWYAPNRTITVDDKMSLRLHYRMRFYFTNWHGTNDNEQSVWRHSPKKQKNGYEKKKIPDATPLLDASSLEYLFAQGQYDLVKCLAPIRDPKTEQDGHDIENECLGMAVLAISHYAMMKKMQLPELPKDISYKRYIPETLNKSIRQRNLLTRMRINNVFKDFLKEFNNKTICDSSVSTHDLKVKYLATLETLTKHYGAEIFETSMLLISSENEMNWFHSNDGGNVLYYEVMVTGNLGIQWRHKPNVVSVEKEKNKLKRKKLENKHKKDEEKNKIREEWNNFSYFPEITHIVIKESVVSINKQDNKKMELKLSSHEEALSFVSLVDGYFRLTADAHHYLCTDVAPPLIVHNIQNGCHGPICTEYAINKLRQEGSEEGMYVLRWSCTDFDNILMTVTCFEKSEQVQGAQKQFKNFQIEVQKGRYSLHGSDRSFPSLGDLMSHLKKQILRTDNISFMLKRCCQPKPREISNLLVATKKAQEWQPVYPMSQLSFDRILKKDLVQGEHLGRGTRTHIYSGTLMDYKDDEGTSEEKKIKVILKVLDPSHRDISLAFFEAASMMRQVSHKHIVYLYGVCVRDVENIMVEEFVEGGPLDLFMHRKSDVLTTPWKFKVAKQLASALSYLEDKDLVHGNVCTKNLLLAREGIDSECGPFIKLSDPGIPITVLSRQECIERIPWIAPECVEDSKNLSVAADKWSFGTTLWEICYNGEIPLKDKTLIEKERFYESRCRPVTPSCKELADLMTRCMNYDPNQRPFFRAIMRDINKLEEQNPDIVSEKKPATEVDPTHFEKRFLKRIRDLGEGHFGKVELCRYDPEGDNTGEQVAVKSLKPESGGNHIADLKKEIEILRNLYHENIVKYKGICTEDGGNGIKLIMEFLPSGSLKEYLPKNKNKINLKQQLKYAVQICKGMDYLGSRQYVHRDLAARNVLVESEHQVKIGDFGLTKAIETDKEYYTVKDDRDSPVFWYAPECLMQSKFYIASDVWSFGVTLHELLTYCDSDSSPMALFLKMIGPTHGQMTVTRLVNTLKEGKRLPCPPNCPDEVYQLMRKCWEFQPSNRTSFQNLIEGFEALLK
How it was run: as §1

ERK5 = target: T4, ERK5 (Homo sapiens, UniProt Q13164); assay: Probe-based (AX9989 acyl phosphate ATP probe) kinase profiling in Jurkat lysate: ERK5; type: binding; conditions: for IC50: Jurkat lysate
T4 construct: screened for activity against several kinases in Jurkat cells; endogenous in cells; host or cells: Jurkat cell lysate
T4 sequence (Q13164 whole entry): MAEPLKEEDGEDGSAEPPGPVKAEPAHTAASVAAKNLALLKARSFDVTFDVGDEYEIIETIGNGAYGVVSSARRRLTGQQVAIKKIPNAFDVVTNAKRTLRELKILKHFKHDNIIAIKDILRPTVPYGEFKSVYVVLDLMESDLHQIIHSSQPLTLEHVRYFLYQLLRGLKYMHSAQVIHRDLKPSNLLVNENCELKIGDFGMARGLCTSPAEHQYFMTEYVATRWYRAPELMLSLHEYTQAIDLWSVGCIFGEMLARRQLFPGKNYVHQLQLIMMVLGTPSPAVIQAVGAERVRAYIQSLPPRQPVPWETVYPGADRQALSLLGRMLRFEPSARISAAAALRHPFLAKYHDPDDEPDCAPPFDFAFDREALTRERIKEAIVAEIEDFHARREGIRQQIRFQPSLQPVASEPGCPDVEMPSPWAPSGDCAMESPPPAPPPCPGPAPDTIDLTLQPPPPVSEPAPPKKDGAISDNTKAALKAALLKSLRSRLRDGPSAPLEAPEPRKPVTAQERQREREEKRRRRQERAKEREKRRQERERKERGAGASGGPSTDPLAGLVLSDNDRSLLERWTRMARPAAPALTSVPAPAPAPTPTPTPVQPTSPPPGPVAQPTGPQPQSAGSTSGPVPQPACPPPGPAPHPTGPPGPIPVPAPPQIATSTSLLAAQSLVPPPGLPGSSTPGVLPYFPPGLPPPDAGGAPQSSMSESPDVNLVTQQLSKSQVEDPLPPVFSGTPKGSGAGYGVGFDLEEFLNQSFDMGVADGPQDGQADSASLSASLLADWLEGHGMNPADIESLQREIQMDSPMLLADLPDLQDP
How it was run: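 Gel-filtered Jurkat lysate (5 mg/ml, 20 mM MnCl2) preincubated 15 min at room temperature with compound, then labelled with 5 μM AX9989 acyl phosphate ATP probe. Probe-labelled ERK5 active-site peptides quantified by LC/MS after trypsin digestion and streptavidin capture; IC50 calculated from percent inhibition at the screening concentration.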

[2] = screening concentration 1.0 μM, read-out: Kinase inhibition % at indicated screening concentration: ACK
[3] = screening concentration 1.0 μM, read-out: Kinase inhibition % at indicated screening concentration: JAK1
[4] = calculated from percent inhibition of AX9989 labeling and the screening concentration
[5] = screening concentration 1.0 μM, read-out: Kinase inhibition % at indicated screening concentration: ERK5

| SMILES | inhibition at 10 µM [1] | EC50 (human PBMCs) | ABL or ARG Inhibition % at indicated screening concentration (ABL or ARG; screening concentration 1 μM) | inhibition at 1 µM (ACK; screening concentration 1 μM, read-out: ACK Inhibition % at indicated screening concentration) | inhibition at 1 µM (JAK1; screening concentration 1 μM, read-out: JAK1 Inhibition % at indicated screening concentration) | IC50 (ERK5; calculated from percent inhibition and screening concentration, AX9989 probe) | inhibition at 1 µM (ERK5; screening concentration 1 μM, read-out: ERK5 Inhibition % at indicated screening concentration) | Kinase inhibition % at indicated screening concentration: ABL or ARG (ABL or ARG; screening concentration 1.0 μM) | inhibition at 1 µM (ACK; [2]) | inhibition at 1 µM (JAK1; [3]) | IC50 (ERK5; [4]) | inhibition at 1 µM (ERK5; [5]) | Kinase inhibition % at indicated screening concentration: ABL or ARG (ABL or ARG; screening concentration 0.1 μM) | inhibition at 0.1 µM (ACK; screening concentration 0.1 μM, read-out: Kinase inhibition % at indicated screening concentration: ACK) | inhibition at 0.1 µM (JAK1; screening concentration 0.1 μM, read-out: Kinase inhibition % at indicated screening concentration: JAK1) | inhibition at 0.1 µM (ERK5; screening concentration 0.1 μM, read-out: Kinase inhibition % at indicated screening concentration: ERK5) |
| --- | --- | --- | --- | --- | --- | --- | --- | --- | --- | --- | --- | --- | --- | --- | --- | --- |
| CCOc1cc(C(=O)N(C)[C@H]2CC[C@H](O)CC2)ccc1Nc1cc2c(cn1)N(C)C(=O)c1ccccc1N2C [Compound T64] | 70 to 85% | 620 nM | E (E is ≦35%) | ≤ 35% | ≤ 35% | 50 to 100 nM | > 90% | – | – | – | – | – | – | – | – | – |
| CN1C(=O)c2ccccc2N(C)c2cc(N[C@H]3CC[C@H](N4CCCC4)CC3)ncc21 [Compound 74] | < 70% | 4960 nM | – | – | – | – | – | E (E is ≦35%) | ≤ 35% | ≤ 35% | 101 to 500 nM | 50 to 75% | – | – | – | – |
| CCOc1cc(C(=O)NC2CCOCC2)ccc1Nc1cc2c(cn1)N(C)C(=O)c1ccccc1N2C [Compound 80] | < 70% | 1290 nM | – | – | – | – | – | E (E is ≦35%) | ≤ 35% | ≤ 35% | 101 to 500 nM | 50 to 75% | – | – | – | – |
| CCOc1cc(C(=O)NCCn2ccnc2)ccc1Nc1cc2c(cn1)N(C)C(=O)c1ccccc1N2C [Compound 84] | < 70% | 1180 nM | – | – | – | – | – | E (E is ≦35%) | ≤ 35% | ≤ 35% | 50 to 100 nM | > 90% | – | – | – | – |
| CCOc1cc(C(=O)N2CC(N3CCCCC3)C2)ccc1Nc1cc2c(cn1)N(C)C(=O)c1ccccc1N2C [Compound 114] | > 85% | 530 nM | – | – | – | – | – | – | – | – | ≤ 50 nM | – | E (E is ≦35%) | ≤ 35% | ≤ 35% | > 90% |
| CCOc1cc(C(=O)NCCOC)ccc1Nc1cc2c(cn1)N(C)C(=O)c1ccccc1N2C [Compound 83] | < 70% | 1480 nM | – | – | – | – | – | E (E is ≦35%) | ≤ 35% | ≤ 35% | 101 to 500 nM | 75 to 90% | – | – | – | – |
| CCOc1cc(C(=O)N(CC)CCN(CC)CC)ccc1Nc1cc2c(cn1)N(C)C(=O)c1ccccc1N2C [Compound 122] | 70 to 85% | 1130 ± 380 nM | – | – | – | – | – | E (E is ≦35%) | ≤ 35% | ≤ 35% | ≤ 50 nM | > 90% | – | – | – | – |
| CCOc1cc(C(=O)N[C@@H]2CCCOC2)ccc1Nc1cc2c(cn1)N(C)C(=O)c1ccccc1N2C [Compound 69] | < 70% | 1070 nM | – | – | – | – | – | E (E is ≦35%) | ≤ 35% | ≤ 35% | 101 to 500 nM | 50 to 75% | – | – | – | – |
| CCOc1cc(C(=O)N2CCN(CCOCCO)CC2)ccc1Nc1cc2c(cn1)N(C)C(=O)c1ccccc1N2C [Compound 6] | > 85% | 540 nM | – | – | – | – | – | E (E is ≦35%) | ≤ 35% | ≤ 35% | ≤ 50 nM | > 90% | – | – | – | – |
| Cc1cc(CN2CCCC2)ccc1Nc1cc2c(cn1)N(C)C(=O)c1ccccc1N2C [Compound 106, 5,11-dimethyl-3-(2-methyl-4-(pyrrolidin-1-ylmethyl)phenylamino)-5H-benzo[e]pyrido[3,4-b][1,4]diazepin-10(11H)-one] | < 70% | 2840 nM | – | – | – | – | – | E (E is ≦35%) | ≤ 35% | ≤ 35% | ≤ 50 nM | > 90% | – | – | – | – |
| CCOc1cc(C(=O)N2CCC(O)CC2)ccc1Nc1cc2c(cn1)N(C)C(=O)c1ccccc1N2C [Compound 52] | 70 to 85% | 820 nM | – | – | – | – | – | E (E is ≦35%) | ≤ 35% | ≤ 35% | 50 to 100 nM | > 90% | – | – | – | – |

Source: patent US20170008888A1 (KYORIN PHARMACEUTICAL CO., LTD., priority 2014, published 2017)
